Test results taken from patent publication US11981646B1, “3-(4-methoxyphenyl)-5-{[5-methyl-2-(propan-2-yl)phenoxy]methyl}-1,2,4-oxadiazole as an antitumor and antimicrobial compound” (King Faisal University, priority 2023, dated 2024).

Legend:
[1] = system: human prostate cancer cells (PC3); experiment: Assessment of cytotoxicity by SRB assay, PC3 cells; format: cell-based; details: 0.01 μM to 100 μM for 72 h
Protocol: (§1) Human prostate cancer cells (PC3) and human osteosarcoma cells (MG-63) were obtained from Nawah Scientific Inc. (Mokatam, Cairo, Egypt) and cultured in DMEM (Dulbecco's modified eagle's medium), Gibco, USA, supplemented with fetal bovine serum (FBS) at a concentration of 10% and 100 U/mL of penicillin and streptomycin (PS). The Cells were incubated at 37° C. in a humidified environment that contained 5% CO2. Cells were seeded in 96-well plates as aliquots of 100 μL cell suspension and incubated in a complete media for 24 h. Afterward, cells were treated with 3-(4-methoxyphenyl)-5-{[5-methyl-2-(propan-2-yl)phenoxy]methyl}-1,2,4-oxadiazole at diverse concentrations ranging from 0.01 μM to 100 μM for 72 h. Then, cells were fixed at 4° C. for one hour with 150 μL of 10% trichloroacetic acid (TCA). After washing the cells five times with distilled water, 70 μL of sulforhodamine (SRB) solution (0.4% w/v) was added and incubated for 10 min at room temperature in a dark place. […] Then, 150 μL of Tris pH 10.5 (10 mM) was added, and the absorbance was measured at 540 nm using a BMG LABTECH®-FLUOstar Omega microplate reader (Ortenberg, Germany). Half maximal inhibitory concentrations (IC50) values were calculated for each experiment using GraphPad Prism 6 software. […] The inhibition was calculated using the following equation: Inhibition %=100−Average Viability

[2] = system: human osteosarcoma cells (MG-63); experiment: Assessment of cytotoxicity by SRB assay, MG-63 cells; format: cell-based; details: 0.01 μM to 100 μM for 72 h
Protocol: as §1

COc1ccc(-c2noc(COc3cc(C)ccc3C(C)C)n2)cc1 [3-(4-methoxyphenyl)-5-{[5-methyl-2-(propan-2-yl)phenoxy]methyl}-1,2,4-oxadiazole]
antiproliferative activity against prostate cancer cells (PC3) [1]: excellent antiproliferative activities | antiproliferative activity against osteosarcoma (MG-63) cells [2]: excellent antiproliferative activities
